Like-named read-outs stand apart in the source and are kept apart here.
Tests used:
[1] = test system: Human colon tumor cells (Colo205); assay: Cell growth inhibition assay (CellTiter-Glo), Colo205; type: cell-based
Outline: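 Read-out was CellTiter-Glo luminescence (total ATP as a cell-number surrogate), expressed as % inhibition against DMSO vehicle wells. Before that, cells grown in RPMI/10% FBS were treated for 3 days at 37 °C with ten 1:3-spaced compound concentrations, final DMSO 0.2%.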

[2] = biological target: T1, BRAFV600E full-length (amino acids 2-766) (Homo sapiens, UniProt P15056, V600E); assay: B-Raf Accelerated MEK ATPase assay (BRAMA); type: biochemical
T1 construct: His6-tagged BRAFV600E full-length (amino acids 2-766); His6; made in house; host or cells: baculovirus expression system (insect cells)
Outline: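 Coupled-enzyme readout: ADP generated by MEK-mediated ATP hydrolysis, uncoupled from ERK phosphorylation, is linked to NADH oxidation through pyruvate kinase and lactate dehydrogenase.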

[3] = test system: Human melanoma cancer cells (SK-MEL-28); assay: Cell growth inhibition assay (CellTiter-Glo), SK-MEL-28; type: cell-based
[4] = COLO 205, 72 h, Table 2a, 3 days incubation, read-out: Activity in Colo205 Tumor Cells
[5] = COLO 205, Table 2b, later runs, average for the one or more runs, categorized, read-out: IC50 for Colo205
[6] = B-Raf Activity, Table 1a, highest pIC50 for the one or more runs, categorized
[7] = Table 1b, later runs, average pIC50 for the one or more runs, categorized, read-out: B-Raf pIC50 (converted)
[8] = SK-MEL-28, 72 h, Table 3a, 3 days incubation, read-out: Activity in SK-MEL-28 Tumor Cells
[9] = SK-MEL-28, Table 3b, later runs, average for the one or more runs, categorized, read-out: IC50 for SK-MEL-28
[10] = B-Raf pIC50, Table 1b, later runs, average pIC50 for the one or more runs, categorized

T1 sequence (P15056 2-766 V600E): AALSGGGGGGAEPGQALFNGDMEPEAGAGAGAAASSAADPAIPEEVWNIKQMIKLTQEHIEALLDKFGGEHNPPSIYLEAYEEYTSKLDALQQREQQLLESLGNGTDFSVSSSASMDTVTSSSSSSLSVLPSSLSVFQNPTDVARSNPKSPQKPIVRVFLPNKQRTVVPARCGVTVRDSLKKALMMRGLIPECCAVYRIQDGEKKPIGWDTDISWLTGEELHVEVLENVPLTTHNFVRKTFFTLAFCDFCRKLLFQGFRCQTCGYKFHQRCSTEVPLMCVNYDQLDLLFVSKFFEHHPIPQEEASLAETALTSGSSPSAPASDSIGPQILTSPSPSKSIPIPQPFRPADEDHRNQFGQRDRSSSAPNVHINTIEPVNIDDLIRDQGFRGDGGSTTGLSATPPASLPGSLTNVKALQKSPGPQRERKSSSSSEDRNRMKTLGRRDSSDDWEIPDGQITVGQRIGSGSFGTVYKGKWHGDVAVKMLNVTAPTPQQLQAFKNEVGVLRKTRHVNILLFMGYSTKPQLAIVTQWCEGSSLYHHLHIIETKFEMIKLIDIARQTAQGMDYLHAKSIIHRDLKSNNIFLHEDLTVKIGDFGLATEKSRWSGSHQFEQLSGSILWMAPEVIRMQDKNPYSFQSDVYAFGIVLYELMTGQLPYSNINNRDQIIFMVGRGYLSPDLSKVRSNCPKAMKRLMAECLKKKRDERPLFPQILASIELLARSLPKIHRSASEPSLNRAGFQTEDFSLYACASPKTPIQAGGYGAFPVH

SMILES	IC50 [1, 4] [nM]	IC50 [1, 5] [nM]	IC50 [2, 6] [nM]	IC50 [2, 7] [nM]	IC50 [3, 8] [nM]	IC50 [3, 9] [nM]	IC50 [2, 10] [nM]	IC50 [2] [nM]
COc1ccc(F)cc1S(=O)(=O)Nc1cccc(-c2nc(C(C)C)sc2-c2ccnc(NC3CCN(S(C)(=O)=O)CC3)n2)c1F [Example 153]	< 100	< 100	< 100	3.16 to 31.6	< 100	< 100		
CC(C)CNc1nccc(-c2sc(C(C)C)nc2-c2cccc(NS(=O)(=O)c3ccco3)c2F)n1 [Example 154]	100 to 1000	100 to 1000	< 100		100 to 1000	100 to 1000	≤ 3.16	
CC(C)CNc1nccc(-c2sc(C(C)C)nc2-c2cccc(NS(=O)(=O)c3cccnc3)c2)n1 [Example 155]	100 to 1000	100 to 1000	< 100		100 to 1000	100 to 1000	≤ 3.16	
CC(C)(C)c1nc(-c2c(F)ccc(NS(=O)(=O)c3cccc(F)c3)c2F)c(-c2ccnc(N)n2)s1 [Example 157]	< 100	< 100	< 100		< 100	< 100	≤ 3.16	
CC(C)Nc1nccc(-c2sc(C(C)C)nc2-c2cccc(NS(=O)(=O)c3cccc(F)c3)c2)n1 [Example 158]	> 1000	1000 to 10000	< 100		> 1000	1000 to 10000	31.6 to 1000	
COCCNc1nccc(-c2sc(C(C)C)nc2-c2ccc(F)c(NS(=O)(=O)c3c(F)cccc3F)c2)n1 [Example 159]	100 to 1000	100 to 1000	100 to 1000		100 to 1000	100 to 1000	31.6 to 1000	
CC(C)c1nc(-c2ccc(F)c(NS(=O)(=O)c3c(F)cccc3F)c2)c(-c2ccnc(NCCO)n2)s1 [Example 160]	100 to 1000	100 to 1000	100 to 1000		100 to 1000	100 to 1000	31.6 to 1000	
CC(C)c1nc(-c2ccc(F)c(NS(=O)(=O)c3c(F)cccc3F)c2)c(-c2ccnc(NCCN(C)C)n2)s1 [Example 161]	> 1000	1000 to 10000	100 to 1000		> 1000	1000 to 10000	31.6 to 1000	
COCC(C)Nc1nccc(-c2sc(C(C)C)nc2-c2ccc(F)c(NS(=O)(=O)c3c(F)cccc3F)c2)n1 (centres unmarked) [Example 162]	100 to 1000	100 to 1000	100 to 1000		100 to 1000	100 to 1000	31.6 to 1000	
CC(C)c1nc(-c2ccc(F)c(NS(=O)(=O)c3c(F)cccc3F)c2)c(-c2ccnc(NCCCN(C)C)n2)s1 [Example 163]	> 1000	1000 to 10000			> 1000			> 1000
CC(C)c1nc(-c2ccc(F)c(NS(=O)(=O)c3c(F)cccc3F)c2)c(-c2ccnc(NCCN3CCCC3)n2)s1 [Example 164]	> 1000	1000 to 10000			> 1000	1000 to 10000		> 1000
CC(C)c1nc(-c2ccc(F)c(NS(=O)(=O)c3c(F)cccc3F)c2)c(-c2ccnc(NCCN3CCOCC3)n2)s1 [Example 165]	100 to 1000	100 to 1000			100 to 1000	100 to 1000	31.6 to 1000	
CC(C)c1nc(-c2ccc(F)c(NS(=O)(=O)c3c(F)cccc3F)c2)c(-c2ccnc(NCCOCCO)n2)s1 [Example 166]	100 to 1000	100 to 1000			100 to 1000	100 to 1000	31.6 to 1000	
CC(C)c1nc(-c2ccc(F)c(NS(=O)(=O)c3c(F)cccc3F)c2)c(-c2ccnc(NCCCCN(C)C)n2)s1 [Example 167]	100 to 1000	100 to 1000			> 1000	1000 to 10000	31.6 to 1000	
COCCCNc1nccc(-c2sc(C(C)C)nc2-c2ccc(F)c(NS(=O)(=O)c3c(F)cccc3F)c2)n1 [Example 168]	100 to 1000	100 to 1000			100 to 1000	100 to 1000	31.6 to 1000	
CC(C)c1nc(-c2ccc(F)c(NS(=O)(=O)c3c(F)cccc3F)c2)c(-c2ccnc(NCCN3CCS(=O)(=O)CC3)n2)s1 [Example 175]	100 to 1000	100 to 1000	< 100		100 to 1000	100 to 1000	31.6 to 1000	
CC(C)CNc1nccc(-c2sc(C(C)C)nc2-c2cccc(NS(=O)(=O)c3c(F)cccc3F)c2F)n1 [Example 176]	< 100	< 100	< 100		< 100	< 100	≤ 3.16	
CC(C)(C)c1nc(-c2cccc(NS(=O)(=O)c3cc(F)ccc3F)c2F)c(-c2ccnc(NCC(F)F)n2)s1 [Example 177]	< 100	1000 to 10000	< 100		< 100	1000 to 10000	≤ 3.16	
CC(C)c1nc(-c2ccc(F)c(NS(=O)(=O)c3c(F)cccc3F)c2)c(-c2ccnc(NCCF)n2)s1 [Example 178]	100 to 1000	100 to 1000	< 100		100 to 1000	100 to 1000	31.6 to 1000	
CC(C)(C)c1nc(-c2cccc(NS(=O)(=O)c3cc(F)ccc3F)c2F)c(-c2ccnc(NCCF)n2)s1 [Example 179]	< 100	< 100	< 100		< 100	< 100	≤ 3.16	
CC(C)c1nc(-c2ccc(F)c(NS(=O)(=O)c3c(F)cccc3F)c2)c(-c2ccnc(NCCC(F)(F)F)n2)s1 [Example 180]	100 to 1000	100 to 1000	< 100	3.16 to 31.6	100 to 1000	100 to 1000		
CC(C)CNc1nccc(-c2sc(N3CCOCC3)nc2-c2cccc(NS(=O)(=O)c3cc(F)ccc3F)c2F)n1 [Example 182]	< 100	< 100	< 100		< 100	< 100	≤ 3.16	
CC(=O)NCCNc1nccc(-c2sc(C(C)C)nc2-c2ccc(F)c(NS(=O)(=O)c3c(F)cccc3F)c2)n1 [Example 183]	> 1000	1000 to 10000	< 100		> 1000	1000 to 10000	31.6 to 1000	
CC(C)c1nc(-c2ccc(F)c(NS(=O)(=O)c3cc(F)ccc3F)c2)c(-c2ccnc(NCCCN3CCCC3=O)n2)s1 [Example 184]	< 100	< 100	< 100	3.16 to 31.6	< 100	< 100		
CC(C)c1nc(-c2cccc(NS(=O)(=O)c3cc(F)ccc3F)c2F)c(-c2ccnc(NCCCN3CCCC3=O)n2)s1 [Example 185]	< 100	< 100	< 100		< 100	< 100	≤ 3.16	
CC(=O)NCCNc1nccc(-c2sc(C(C)C)nc2-c2ccc(F)c(NS(=O)(=O)c3cc(F)ccc3F)c2)n1 [Example 186]	100 to 1000	100 to 1000	< 100	3.16 to 31.6	100 to 1000	100 to 1000		
